Reference: patent EP2742942A1, “Niacinamide for inducing generation of antimicrobial peptides” (Unilever N.V., priority 2012, dated 2014)

Experiments:
[1] = test system: E. coli 10536; assay: In vivo forearm study with lotion, residual E. coli by cup scrub method; settings: lotion with 3% niacinamide, forearm of human volunteers, twice a day
Method: To confirm the findings from the in vitro experiments, the effect of Niacinamide on healthy human volunteers was tested in vivo. The volunteers were asked to apply a lotion with and without niacinamide (3%) on their forearm twice a day. After 7 days of application, the spots were extracted in PBS and ELISA was performed for detection of Psoriasin and LL-37 AMPs.
Glycerol stock of E. coli (10536) was inoculated in 30 ml TSB medium and culture was incubated overnight at 37°C in shaker incubator. Overnight culture was sub cultured on TSA slants and incubated overnight at 37°C then the slants were stored at 4°C (once in 15 days, slants were prepared freshly).
E. coli culture from slant was sub cultured on TSA plate and incubated overnight at 37°C. Overnight grown plate culture of E. coli was suspended in 6 to 7 ml of Sodium phosphate buffer (10mM). Density of culture was adjusted to 1 OD620 using spectrophotometer and used for clinical studies.
This technique is included in the ASTM method, E2752 - 10 (Standard guide for evaluation of residual effectiveness of antibacterial). The cup and rod were made up of Teflon and the area of the cup is 2.84 cm^2. The cup was used to hold the buffer on skin and rod was used for scrubbing, for better recovery of skin AMP and/or residual bacteria from skin. The duration of scrubbing was 1 min. […]

[2] = test system: E. coli; assay: Human volunteer study with Vaseline healthy white cream, E. coli count on forearm; format: in vivo; settings: two times per day for 1 day, control 4.3
Method: An experiment using the following protocol was conducted: • 1. Volunteers were given Lux™ soap for use and asked not to use any other soap or moisturizers on their forearm for 7 days before the start of the study. • 2. Volunteer were be asked to apply Vaseline™ healthy white base cream and Vaseline™ healthy white formulated with Niacinamide (1%, 2% and 3%) at various spots on the forearm. • 3. Volunteers were asked to repeat […] for two times per day for 1 day, morning after bath and night just before sleep. The volunteers were asked not to wash the forearms after application of formulations at night. • 4. On day 2, the forearms were washed by the investigator with a non-antibacterial soap bar and asked the volunteers to wait for 6 hours under controlled conditions (24 ±2°C and 45%±5% RH) • 5. After 6 hours of waiting, ∼10^6 E. coli were applied on the forearm to each spot separately. The contact time of E. coli on skin was 15 minutes. • 6. After 15 minutes, the sample was extracted from the forearm using the cup-rod method. • 7. E. coli was counted using standard microbiological method.

[3] = test system: psoriasin gene expression; assay: Psoriasin gene expression in primary keratinocytes, quantitative real-time PCR; format: cell-based, human
Method: (§1) Human primary keratinocytes prepared from neonatal foreskin were obtained from (Lonza India) and cultured in serum-free keratinocyte growth medium with defined growth supplements (Invitrogen). Keratinocytes were cultured in 12 and 24 well tissue culture plates (BD Falcon) and treated cells at a confluence of 60-70%. Keratinocytes stimulation was performed in KGM with growth supplement and all experiment was done between passages 3 to 5.
(§2) NHEKs were cultured in 12-well plates (BD, Falcon) at 6 × 10^4 cells per well. After 24h of incubation, 50% media was replaced with fresh media. On day 3, cells were treated with different concentrations of Niacinamide with fresh media for 16-18 hours. Cells were harvested in RLT buffer (Qiagen) and samples were stored at -70°C till used for RNA isolation.
(§3) Total RNA was isolated using RNeasy Mini kit from Qiagen, according to the manufacturer's instructions. […]
(§4) Real time PCR was carried out using SYBR green method as per the manufacturer's (Bio-Rad, USA) instructions using thermal controlled Chromo4 machine (Bio-Rad, USA). 5µl of 1:10 diluted sample of cDNA and 1.5pmole of specific primers were used in each reaction by using a standardized PCR program (i.e. 94°C for 5 minutes followed by 50 cycles of "94°C for 15 seconds, 60°C for 30sec, 72°C for 30 seconds) and results were analysed by using 2^-ΔΔCT method. […]

[4] = test system: LL-37 gene expression; assay: LL-37 gene expression in primary keratinocytes, quantitative real-time PCR; format: cell-based; settings: Homo sapiens, Keratinocyte, 18 hours, Niacinamide 1.22 mg/ml, control = 1.0, read-out: Fold change (LL-37 gene expression)
Method: as §1, §2, §3, §4

[5] = test system: Lysozyme C; assay: AMP secretion by primary keratinocytes, mass spectrometry of secretome (PSM); format: cell-based; settings: Niacinamide 1mg/ml, 72 hours; control sample 2
Method: (§5) The following procedure was used to determine the AMPs induced as a consequence of niacinamide on keratinocte cells. • 1. Primary keratinocytes were seeded in 12 well plates with 1 ml of KGM complete media. (Seeded 60,000 cells/well at Passage-4). • 2. Plates were incubated in the CO2 incubator for 48 hours. • 3. After 48 hours of incubation, cells were treated with and without Niacinamide 1mg/ml concentration in duplicate wells (fresh media was used for treatment). • 4. After 72 hours of incubation, cell culture supernatant was transferred in to 1.5 ml eppendorf tubes respectively. • 5. Samples were then passed through 20 kDa cutoff filters to remove high molecular weight proteins. • 6. Eluted samples, containing <20kDa proteins were transferred to 15ml sterile centrifuge tubes. • 7. Then, chilled acetone (HPLC grade) was added to the eluted samples (1 ml of sample:4ml of acetone) • 8. Tubes were transferred to -20°C for 24 hours to precipitate the proteins. • 9. After 24 hours, tubes were centrifuged at 14000g for 40 minutes at 4°C. • 10. The supernatant was discarded and the protein pellet was analysed using mass spectrometry for proteins.
(§6) The increased level of secretion of AMPs is measured by a PSM value (a peptide spectrum match scoring function) which is a relative measure of abundance of the peptide in the secretome. Table - 5

[6] = test system: Lactoferrin; assay: as above; format: cell-based; settings: Niacinamide 1mg/ml, 72 hours; control sample 1
Method: as §5, §6

[7] = test system: Elafin; assay: as above; format: cell-based; settings: Niacinamide 1mg/ml, 72 hours; control sample 1
Method: as §5, §6

[8] = test system: S-100-A8; assay: as above; format: cell-based; settings: Niacinamide 1mg/ml, 72 hours; control sample 1
Method: as §5, §6

[9] = test system: S-100-A11; assay: as above; format: cell-based; settings: Niacinamide 1mg/ml, 72 hours; control sample 2
Method: as §5, §6

[10] = test system: S100-A9; assay: as above; format: cell-based; settings: Niacinamide 1mg/ml, 72 hours; control sample 2
Method: as §5, §6

[11] = test system: Lipocalin -2; assay: as above; format: cell-based; settings: Niacinamide 1mg/ml, 72 hours; control sample 1
Method: as §5, §6

[12] = test system: Lipocalin-1; assay: as above; format: cell-based; settings: Niacinamide 1mg/ml, 72 hours; control sample 0
Method: as §5, §6

[13] = test system: Psoriasin (S100A7); assay: Psoriasin ELISA of keratinocyte culture supernatant; format: cell-based, human; settings: detected by ELISA, keratinocytes
Method: as §1
Primary keratinocytes were seeded in 12-well plates (BD falcon). At 60 to 70% confluency, cells were treated with different concentration of Niacinamide for 72h. After 72 hours of incubation cell culture supernatant was stored at -70°C until used for ELISA. All ELISA reagents and samples were brought to room temperature prior to the assay. Cell culture supernatant samples were centrifuged at 5000 rpm for 10 minutes before use. 100 ↘l of undiluted sample of cell culture supernatant was used for checking the psoriasin level by using ELISA kit from CircuLex. The clinical samples were diluted in to 1:25 in dilution buffer and used 100↘l from diluted samples for checking psoriasin level by ELISA. In case of LL-37, 100 ↘l of undiluted samples from in vitro as well as clinical samples were used for checking LL-37 level by ELISA (Hycult Biotech).

NC(=O)c1cccnc1 [Niacinamide]
Residual log of E.Coli measured after one day of applying a composition ([1]; n= 28, basal 4.21, lotion without niacinamide 3.44): 2.31
Residual log of E.Coli measured after 7 days of applying a composition ([1]; n= 34, basal 4.41, lotion without niacinamide 3.56): 2.39
Residual log of E. Coli ([2]; 1 % niacinamide in Vaseline healthy white cream): 3.5
Residual log of E. Coli ([2]; 2% niacinamide in Vaseline healthy white cream): 3.0
Residual log of E. Coli ([2]; 3% niacinamide in Vaseline healthy white cream): 2.7
induction of psoriasin gene expression (in words) ([3]; 1.22 mg/ml): unable to induce psoriasin gene expression
fold induction at 1220 µg/mL ([3]; Homo sapiens, Keratinocyte, primary keratinocytes, 18 hours, Niacinamide 1.22 mg/ml, control = 1.0, read-out: Fold change (psoriasin gene expression)): 1.1
fold induction at 1220 µg/mL [4]: 2.4
PSM value with niacinamide treatment, Lysozyme C [5]: 4
PSM value with niacinamide treatment, Lactoferrin [6]: 7
PSM value with niacinamide treatment, Elafin [7]: 3
PSM value with niacinamide treatment, S-100-A8 [8]: 3
PSM value with niacinamide treatment, S-100-A11 [9]: 5
PSM value with niacinamide treatment, S100-A9 [10]: 4
PSM value with niacinamide treatment, Lipocalin -2 [11]: 4
PSM value with niacinamide treatment, Lipocalin-1 [12]: 2
secretion of psoriasin AMP (in words) [13]: able to induce the secretion of psoriasin AMP
